Data taken from ChEMBL document CHEMBL5390242, “Design, Synthesis, and Antitumor Efficacy of Substituted 2-Amino[1,2,4]triazolopyrimidines and Related Heterocycles as Dual Inhibitors for Microtubule Polymerization and Janus Kinase 2” (J Med Chem, 2023).
Active and inactive are the calls of the source. The calls are words filed in the database; no cut-off is given here.

What was measured:
BXPC-3 = test: Antiproliferative activity against human BXPC-3 cells assessed as cell growth inhibition incubated for 48 hrs by MTT assay; format: functional, cell-based; conditions: BXPC-3, 48 h
MCF7 = test: cells; conditions: Homo sapiens, MCF7, 48 h
Description: Antiproliferative activity against human MCF7 cells assessed as cell growth inhibition incubated for 48 hrs by MTT assay

KP-4 = test: Antiproliferative activity against human KP-4 cells assessed as cell growth inhibition incubated for 48 hrs by MTT assay; format: functional, cell-based; conditions: KP-4, 48 h
A549 = test: Antiproliferative activity against human A549 cells assessed as cell growth inhibition incubated for 48 hrs by MTT assay; format: functional, cell-based; conditions: A549, 48 h
[1] = target: T1, Tyrosine-protein kinase JAK2 (Homo sapiens, UniProt O60674); test: Inhibition of JAK2 (unknown origin) using Poly-(Glu,Tyr 4:1) peptide as substrate at 1 uM in presence of ATP by ADP-Glo reagent based assay relative to control
HeLa = test: Antiproliferative activity against human HeLa cells assessed as cell growth inhibition incubated for 48 hrs by MTT assay; format: functional, cell-based
Tubulin = Tubulin (Sus scrofa, UniProt P02554+P02550); test: Inhibition of porcine brain tubulin polymerization measured for 30 mins in presence of GTP by microplate reader assay; format: tissue-based
[2] = target: T1, Tyrosine-protein kinase JAK2; test: Inhibition of JAK2 (unknown origin) using Poly-(Glu,Tyr 4:1) peptide as substrate in presence of ATP by ADP-Glo reagent based assay
[3] = target: Tubulin beta (Homo sapiens) (UniProt P68371+Q9H4B7+Q13509+P04350+Q3ZCM7+P07437+Q13885+Q9BVA1+Q9BUF5+A6NNZ2); test: Binding affinity to beta-tubulin colchicine binding site in human A549 cells assessed as inhibition of EBI-beta-tubulin adduct band formation at 5 to 25 uM preincubated for 2 hrs followed by EBI addition measured after 1.5 hrs by EBI competition based Western blotting analysis; format: cell-based; conditions: dose 5-25 µM
HCT-8 = test: Antiproliferative activity against human HCT-8 cells assessed as cell growth inhibition incubated for 48 hrs by MTT assay; format: functional, cell-based; conditions: HCT-8, 48 h
[4] = Antiproliferative activity against human HCT-8/VCR cells assessed as cell growth inhibition incubated for 48 hrs by MTT assay; format: functional, cell-based
[5] = Resistance index, ratio of IC50 for antiproliferative activity against human HCT-8/VCR cells to IC50 for antiproliferative activity against human HCT-8 cells; format: functional
A2780/Taxol = test: Antiproliferative activity against human A2780T cells assessed as cell growth inhibition incubated for 48 hrs by MTT assay; format: functional, cell-based

T1 sequence (O60674 whole entry): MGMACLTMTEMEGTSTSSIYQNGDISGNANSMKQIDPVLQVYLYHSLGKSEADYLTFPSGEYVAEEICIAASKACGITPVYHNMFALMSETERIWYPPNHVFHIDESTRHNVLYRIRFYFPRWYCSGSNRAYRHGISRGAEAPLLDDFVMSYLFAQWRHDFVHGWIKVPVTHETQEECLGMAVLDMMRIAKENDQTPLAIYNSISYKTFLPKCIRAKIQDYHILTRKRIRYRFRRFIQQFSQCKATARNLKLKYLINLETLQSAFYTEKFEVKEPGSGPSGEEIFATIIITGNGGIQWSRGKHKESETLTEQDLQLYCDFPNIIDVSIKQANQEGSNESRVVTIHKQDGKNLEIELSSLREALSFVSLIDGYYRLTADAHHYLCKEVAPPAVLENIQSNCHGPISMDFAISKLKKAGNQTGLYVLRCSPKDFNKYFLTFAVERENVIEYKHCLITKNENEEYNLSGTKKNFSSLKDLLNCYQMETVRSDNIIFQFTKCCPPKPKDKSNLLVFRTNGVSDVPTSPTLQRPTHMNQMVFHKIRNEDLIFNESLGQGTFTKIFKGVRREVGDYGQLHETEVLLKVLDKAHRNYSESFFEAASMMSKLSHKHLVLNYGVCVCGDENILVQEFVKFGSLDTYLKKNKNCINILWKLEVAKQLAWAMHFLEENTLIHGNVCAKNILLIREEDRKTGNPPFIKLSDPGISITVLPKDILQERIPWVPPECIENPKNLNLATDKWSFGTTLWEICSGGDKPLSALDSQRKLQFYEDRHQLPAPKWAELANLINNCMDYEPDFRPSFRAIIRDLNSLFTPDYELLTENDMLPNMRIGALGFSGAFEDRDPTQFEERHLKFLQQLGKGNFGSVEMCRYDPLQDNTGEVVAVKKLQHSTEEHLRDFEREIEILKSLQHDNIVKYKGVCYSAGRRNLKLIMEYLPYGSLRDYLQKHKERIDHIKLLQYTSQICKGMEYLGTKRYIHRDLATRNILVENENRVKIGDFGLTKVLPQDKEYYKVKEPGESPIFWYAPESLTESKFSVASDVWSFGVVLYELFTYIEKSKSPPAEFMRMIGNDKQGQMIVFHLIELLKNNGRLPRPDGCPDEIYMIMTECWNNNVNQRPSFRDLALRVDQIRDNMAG

Structure (SMILES) | IC50 (BXPC-3) [µM] | IC50 (MCF7) [µM] | IC50 (KP-4) [µM] | IC50 (A549) [µM] | inhibition [1] [%] | IC50 (HeLa) [µM] | IC50 (Tubulin) [µM] | IC50 [2] [µM] | Activity [3] | IC50 (HCT-8) [µM] | IC50 [4] [µM] | Ratio IC50 [5] | IC50 (A2780/Taxol) [µM]
COc1cc(-c2nccc3nc(Nc4cccc5cc[nH]c45)nn23)cc(OC)c1OC | 2.41 | 0.325 | 1.2 | 0.257 | 1.7 | 2.58 | – | – | – | – | – | – | –
COc1cc(-c2ccnc3nc(Nc4cccc5[nH]ccc45)nn23)cc(OC)c1OC | 0.023 | 0.035 | 0.07 | 0.085 | – | 0.166 | – | – | – | – | – | – | –
COc1ccc(Nc2nc3ccnc(-c4cc(OC)c(OC)c(OC)c4)n3n2)cc1O | 0.205 | 0.363 | 3.15 | 0.502 | 46 | 1.06 | – | – | – | – | – | – | –
COc1cc(-c2nccc3nc(Nc4ccc5cc[nH]c5c4)nn23)cc(OC)c1OC | 0.107 | 0.256 | 0.61 | 0.085 | 29 | 0.209 | – | – | – | – | – | – | –
COc1cc(-c2nccc3nc(Nc4ccc5c(c4)c4ccccc4n5C)nn23)cc(OC)c1OC | > 10 | > 10 | 2.12 | 0.996 | – | > 10 | – | – | – | – | – | – | –
COc1ccc(Nc2nc3ccnc(-c4cc(OC)c(OC)c(OC)c4)n3n2)cc1N | 0.176 | 0.189 | 1.8 | 0.201 | 86 | 0.117 | 4.2 | 0.326 | – | – | – | – | –
COCOc1cc(Nc2nc3ccnc(-c4cc(OC)c(OC)c(OC)c4)n3n2)ccc1C | > 10 | > 10 | > 10 | > 10 | – | > 10 | – | – | – | – | – | – | –
CC[C@]1(O)C[C@H]2CN(CCc3c([nH]c4ccccc34)[C@@](C(=O)OC)(c3cc4c(cc3OC)N(C=O)[C@H]3[C@@](O)(C(=O)OC)[C@H](OC(C)=O)[C@]5(CC)C=CCN6CC[C@]43[C@@H]65)C2)C1 [VINCRISTINE] | – | – | – | – | – | – | – | – | inactive | 0.173 | 2.92 | 16.9 | –
COc1cc(-c2nccc3nc(Nc4cccc5ccn(C)c45)nn23)cc(OC)c1OC | > 10 | > 10 | > 10 | > 10 | – | > 10 | – | – | – | – | – | – | –
COc1cc(-c2nccc3nc(Nc4ccc5[nH]ccc5c4)nn23)cc(OC)c1OC | 0.02 | 0.036 | 0.352 | 0.081 | 96 | 0.131 | 8.8 | 0.09 | – | – | – | – | –
COc1cc(-c2nccc3nc(Nc4ccc5c(ccn5C)c4)nn23)cc(OC)c1OC | 0.04 | 0.064 | 0.938 | 0.092 | 77 | 0.202 | 15.3 | 0.544 | – | – | – | – | –
COc1cc(-c2nccc3nc(Nc4ccc(C)c(O)c4)nn23)cc(OC)c1OC | 0.355 | 0.326 | 2.18 | 0.354 | 46 | 0.312 | – | – | – | – | – | – | –
COc1cc(-c2nccc3nc(Nc4ccc5c6ccccc6n(C)c5c4)nn23)cc(OC)c1OC | > 10 | > 10 | > 10 | > 10 | – | > 10 | – | – | – | – | – | – | –
COc1cc(-c2nccc3nc(Nc4cccc5c4ccn5C)nn23)cc(OC)c1OC | 0.016 | 0.046 | 0.04 | 0.013 | 56 | 0.029 | 1.6 | 0.705 | – | – | – | – | –
COc1cc(-c2cccc3nc(Nc4cccc5[nH]ccc45)nn23)cc(OC)c1OC | 0.029 | 0.072 | 0.259 | 0.064 | – | 0.247 | – | – | – | – | – | – | –
CC(=O)O[C@H]1C(=O)[C@@]2(C)[C@H]([C@H](OC(=O)c3ccccc3)[C@]3(O)C[C@H](OC(=O)[C@H](O)[C@@H](NC(=O)c4ccccc4)c4ccccc4)C(C)=C1C3(C)C)[C@]1(OC(C)=O)CO[C@@H]1C[C@@H]2O [PACLITAXEL] | 0.011 | 0.007 | 0.007 | – | – | 0.007 | – | – | – | – | – | – | 0.319
COCOc1cc(Nc2nc3ccnc(-c4cc(OC)c(OC)c(OC)c4)n3n2)ccc1OC | 3.96 | 1.5 | > 10 | > 10 | – | > 10 | – | – | – | – | – | – | –
COc1cc(-c2ccnc3nc(Nc4cccc5c4ccn5C)nn23)cc(OC)c1OC | 0.018 | 0.026 | 0.036 | 0.013 | – | 0.08 | – | – | – | – | – | – | –
COc1ccc(Nc2nc3ccnc(-c4cc(OC)c(OC)c(OC)c4)n3n2)cc1[N+](=O)[O-] | 1.42 | 0.951 | 5.46 | 2.4 | – | 0.593 | – | – | – | – | – | – | –
COc1ccc(-c2ccc3nnc(Nc4cc(OC)c(OC)c(OC)c4)n3c2)cc1O | 5.96 | 3.5 | 4.67 | 3.94 | – | 11.3 | – | – | – | – | – | – | –
COc1cc(-c2cncc3nc(Nc4cccc5[nH]ccc45)nn23)cc(OC)c1OC | 0.088 | 0.026 | 0.431 | 2.53 | – | 0.041 | – | – | – | – | – | – | –
COc1cc(-c2nccc3nc(Nc4ccc5ccn(C)c5c4)nn23)cc(OC)c1OC | 0.63 | 0.28 | 7.16 | > 10 | 26 | 2.17 | – | – | – | – | – | – | –
COc1cc(-c2cncc3nc(Nc4cccc5c4ccn5C)nn23)cc(OC)c1OC | 0.038 | 0.025 | 0.106 | 7.15 | – | 0.059 | – | – | – | – | – | – | –
COc1cc(-c2nccc3nc(Nc4ccc5c(c4)[nH]c4ccccc45)nn23)cc(OC)c1OC | > 10 | > 10 | > 10 | > 10 | – | > 10 | – | – | – | – | – | – | –
COc1cc(Nc2nc3ccnc(-c4cccc5[nH]ccc45)n3n2)cc(OC)c1OC | 0.692 | 0.267 | 0.714 | 1.86 | – | 0.982 | – | – | – | – | – | – | –
COc1cc(-c2nccc3nc(Nc4cccc5[nH]c6ccccc6c45)nn23)cc(OC)c1OC | > 10 | > 10 | > 10 | > 10 | – | > 10 | – | – | – | – | – | – | –
